Test results published in US7723064B2, “Methods for monitoring patients for efficacy of an antiplatelet therapy regimen” (Siemens Healthcare Diagnostics Inc., priority 2004, dated 2010).

What was measured:
[1] = tested on: CD62P (P-selectin) expression on platelets; assay: Platelet CD62P (P-selectin) expression by fluorescence flow cytometry in whole blood of patients before and after anti-platelet therapy and PTCA; type: in vivo, human; conditions: for mean CD62P expression (percent positive events): Clopidogrel patients n=29, 300 mg loading dose and PTCA, baseline 9.5±3.3%; for mean CD62P expression (percent positive events) / CD62P percent positive expression / CD62P expression (percent positive events): mean±SE; for CD62P percent positive expression: patients with high baseline platelet activation, baseline 23.4±6.6%, p<0.01; for CD62P expression (percent positive events): abciximab patients n=15, 0.25 mg/kg bolus plus infusion and PTCA, baseline 9.3±4.0%
Method: (§1) Patients. A total of 44 patients who underwent elective percutaneous coronary angioplasty and stenting were evaluated. The study was approved by the institutional committee on human research. Patients were enrolled in the study after informed consent had been obtained. Their baseline variables including age, gender, smoking history, risk factors, antecedents and medication were documented. These patients received either a loading dose of Clopidogrel (300 mg) before the beginning of the PTCA procedure followed by 75 mg daily for 1 month or intravenously a 0.25 mg/kg, bolus of Abciximab before the beginning of the PTCA procedure followed by a 0.125 μg/kg/mn infusion for 12 h.
(§2) Blood collection. Blood was drawn with a 21-gauge needle into EDTA (5 mM) tubes, mixed immediately with the anticoagulant and avoiding frothing during the mixing procedure. The first 1-2 ml of blood were discarded to avoid the effects of traces of thrombin generated during venipuncture. Serum was collected for CRP measurements. Whole blood specimens for measurement of the ADVIA® 120 Hematology System platelet parameters and flow cytometry analysis were taken prior to baseline, 2 hours, and 24 hours after administration of anti-platelet therapy and PTCA. For platelet activation measurements, all specimens were processed within 1 h after blood collection.
Fluorescence flow cytometry analysis. Whole blood samples were fixed with methanol-free paraformaldehyde (final concentration 0.5%). Fixed blood (5 μl) was incubated at room temperature for 15 min in the dark with monoclonal antibody CD61a-FITC. (10 μl) to identify the platelets and CD62P-PE (10 μl) to measure the expression of P-selectin. Platelets labeled with FITC or PE-conjugated isotype control antibody were used as control for nonspecific staining.
Samples were diluted to 1 ml with PBS. FACScan calibration and compensation were performed as recommended by the manufacturer. Five thousand (5,000) CD61a positive events were acquired on the FACScan flow cytometer (Becton Dickinson, Franklin Lakes, N.J.) equipped with Lysis II software. Data analysis was performed using a threshold based on the FITC-fluorescence correlating to the platelet specific binding of CD61a-FITC antibodies. A gate was drawn around the fluorescent platelet population. The CD61a-FITC labeled platelets that were also positive for PE-conjugated activation marker antibody (CD62P) was quantitated and presented as percentage of positive events.
(§3) Patients. A total of 44 patients who underwent elective percutaneous coronary angioplasty and stenting were evaluated Patients were enrolled in the study after informed consent had been obtained. Their baseline variables including age, gender, smoking history and medication were documented. The treatments were assigned based on the angiographic characteristics. Patients with presence of thrombus and high risk vessel disease were assigned to Abciximab. Two thirds (n=29) of patients received a loading dose of Clopidogrel (300 mg) before the beginning of the PTCA procedure followed by 75 mg daily for 1 month. One third (n=15) of patients received a 0.25 mg/kg bolus of Abciximab intravenously before the beginning of the PTCA procedure followed by a 0.125 μg/kg/min infusion for 12 h. These patients also received Clopidogrel a designated number of hours after PTCA.
Collection of blood. Blood was drawn with a 21-gauge needle into EDTA (5 mM) tubes, mixed immediately with the anticoagulant, and avoiding frothing during the mixing procedure. The first 1-2 ml of blood were discarded to avoid the effects and traces of thrombin generated during venipuncture. Universal precautions were taken at all times during phlebotomy. […]

[2] = tested on: platelets (platelet activation); assay: Mean platelet component concentration (MPC, platelet density) on the ADVIA 120 Hematology System in whole blood of patients before and after anti-platelet therapy and PTCA; type: in vivo, human; conditions: for mean MPC level: Clopidogrel patients n=29, baseline 27.8±0.4 g/dL; for mean MPC level / MPC level: mean±SE; for MPC level: abciximab patients n=15, baseline 28.0±0.3 g/dL
Method: as §1, §2
Bayer ADVIA 120 automated hematology system platelet density measurement. The two-dimensional platelet method is based on the analysis of platelets in whole blood by flow cytometry using the ADVIA 120. The system was standardized and calibrated as per the manufacturer's instructions. The ADVIA 120 Hematology System was quality-controlled using TESTpoint Hematology control reagents (Bayer HealthCare, LLC, Tarrytown, N.Y.). The whole blood specimens anticoagulated with EDTA were processed within 1 h after specimen collection. […] See Macey M. G. et al., Cytometry (1999) 38:250-255; Chapman E. S. et al., Thromb. Haemost. (2003) 89:1004-1015; Ahnadi C. E. et al., Thromb. Haemost (2003) 90:940-948. In this study, MPC determinations were acquired as a measure of platelet activation at baseline, 2 hours, and 24 hours after anti-platelet drug therapy.
as §3
Collection of blood. Blood was drawn with a 21-gauge needle into EDTA (5 mM) tubes, mixed immediately with the anticoagulant, and avoiding frothing during the mixing procedure. The first 1-2 ml of blood were discarded to avoid the effects and traces of thrombin generated during venipuncture. Universal precautions were taken at all times during phlebotomy. Whole blood specimens for measurement of the ADVIA 120 System platelet parameters and CD62P-PE flow cytometry analysis were taken prior to baseline, 2 h, 5 h, and 24 h after administration of a loading charge of Clopidogrel and percutaneous transluminal coronary angioplasty (PTCA), and prior to, 10 min, 2 h, and 24 h after administration of the Abciximab bolus and PTCA. All specimens were processed within 1 h after blood collection.
Bayer ADVIA 120 Automated Hematology System platelet density measurement. […]

[3] = tested on: platelet activation markers CD62, CD63, and PAC-1; conditions: after stimulation with ADP or thrombin; healthy subjects and patients after myocardial infarction; cited from earlier work

COC(=O)[C@H](c1ccccc1Cl)N1CCc2sccc2C1 [Clopidogrel]
mean CD62P expression (percent positive events) ([1]; 2 h): 3.1±1.8%
mean CD62P expression (percent positive events) ([1]; 5 h): 1.2±0.7%
mean CD62P expression (percent positive events) ([1]; 24 h): 1.8±1.1%
platelet activation as determined by both CD62P decrease and increasing MPC ([1]; group of patients with the greatest baseline platelet activation): significant reduction
CD62P percent positive expression ([1]; 2 h): 2.0±1.0%
CD62P percent positive expression ([1]; 5 h): 0.3±0.1%
CD62P percent positive expression ([1]; 24 h): 1.5±0.5%
mean MPC level ([2]; 2 h): 28.4 ± 0.3 g/dL
mean MPC level ([2]; 5 h): 28.9 ± 0.2 g/dL
mean MPC level ([2]; 24 h): 28.7 ± 0.2 g/dL
MPC value ([2]; patients with high baseline platelet activation, 2 h, baseline 25.7±0.8 g/dL, p<0.01): 28.0 ± 0.5 g/dL
MPC value ([2]; patients with high baseline platelet activation, 5 h, baseline 25.7±0.8 g/dL, p<0.01): 28.8 ± 0.3 g/dL
MPC value ([2]; patients with high baseline platelet activation, 24 h, baseline 25.7±0.8 g/dL, p<0.01): 28.4 ± 0.3 g/dL
expression of platelet activation markers CD62, CD63, and PAC-1 [3]: suppresses expression

CC(=O)Oc1ccccc1C(=O)O [aspirin]
platelet inhibition effect ([1]; patients on aspirin therapy before admission, by the classic (CD62P) or new (MPC) platelet activation measurements): not demonstrated

B1: Abciximab (antibody, chains of the INN, looked up, V domains shown)
VH: EVQLQQSGTVLARPGASVKMSCEASGYTFTNYWMHWVKQRPGQGLEWIGAIYPGNSDTSYIQKFKGKAKLTAVTSTTSVYMELSSLTNEDSAVYYCTLYDGYYVFAYWGQGTLVTVSA
VL: EIVLTQSPVTLSVTPGDSVSLSCRASRDISNNLHWFQQTSHESPRLLIKYASQSMSGIPSRFSGSGSGTDFTLSINSVETEDFGMYFCQQTNSWPYTFGGGTKLEIK
modifications: Fab
notes: the monoclonal antibody, abciximab
CD62P expression (percent positive events) ([1]; 2 h): 7.9±5.4%
CD62P expression (percent positive events) ([1]; 24 h): 0.7±0.3%
CD62P-PE value ([1]; one patient, 2 hours after Abciximab and angioplasty, baseline 4.2%, complications of pacemaker installation): 75%
MPC level ([2]; 10 min): 27.9 ± 0.3 g/dL
MPC level ([2]; 2 h): 28.0 ± 0.4 g/dL
MPC level ([2]; 24 h): 28.4 ± 0.2 g/dL
MPC value ([2]; one patient, 2 hours after Abciximab and angioplasty, baseline 28.3 g/dL, complications of pacemaker installation): 22.8 g/dL
